{
  "source": "patent US20090082271A1",
  "about": "“AGENTS THAT REDUCE APOE-INDUCED IMPAIRMENT OF MITOCHONDRIA AND METHODS OF USE THEREOF” (priority 2005, published 2009)",
  "key": {"Neuro-2a cells": {"test_system": "Neuro-2a cells", "assay": "MTT cell survival assay of Neuro-2a cells transiently transfected with apoE4 cDNA constructs", "assay_type": "cell-based, mouse", "settings": "expressed by transient transfection; 48 h after transfection; vs WT apoE4 / apoE4(1-272)", "description": "Cell Culture and Transfection. […] ApoE4 expression levels were determined by anti-apoE western blotting of cell lysates and media. […] Thus, the results are not due to overexpression.\nCell Survival. […] Cell survival was estimated with an MTT colorimetric assay (52) 48 h after transfection."}, "[1]": {"test_system": "differentiated PC12 cells", "assay": "Time-lapse fluorescence recording of mitochondrial motility and morphology in neurites of differentiated PC12 cells (dsRed2-Mito)", "settings": "for mitochondrial motility increased: nimodipine 5 μM and AP5 50 μM together (both antagonists), with different forms of apoE; for reduction of percentage of motile mitochondria in response to neuronal activation: apoE 7.5 μg/ml 24 h, then repetitive depolarizations with KCl"}, "[2]": {"test_system": "rat primary cortical neurons"}, "primary cortical neurons": {"test_system": "primary cortical neurons", "assay": "Number, occupancy and size of mitochondria in dendrites of primary cortical neurons", "assay_type": "cell-based, rat", "settings": "vs apoE3-treated cells or controls"}, "[3]": {"test_system": "rat primary hippocampal neurons", "assay_type": "cell-based", "settings": "apoE 7.5 μg/ml, 24 h", "source_text": "FIGS. 12A and 12B. […] Scale bar=5 μm."}, "[4]": {"test_system": "PC12 cells stably expressing various forms of apoE", "assay": "Mitochondrial dynamics in differentiated PC12 cells stably expressing various forms of apoE", "assay_type": "cell-based, rat", "settings": "endogenous (stably expressed) apoE, ~200 pg apoE per μg cellular protein; vs control"}, "[5]": {"settings": "repetitive depolarization with KCl 90 mM"}},
  "note": "“Also recorded” adds a separate entry of the source.",
  "data": [
    {"molecule": "aa241-272 of apoE4: lipid binding region alone of apoE4 (AKLEEQAQQIRLQAEAFQARLKSWFEPLVEDM; UniProt P02649 259-290, looked up, fragment)", "values": [
      {"measurement": "neurotoxicity (cell survival, MTT assay)", "setting": "Neuro-2a cells", "result": "No neurotoxicity was observed"}
    ]},
    {"molecule": "NC1=N[C@H](O)[C@H]2[C@H]3O[C@]4(O)O[C@@H]([C@@H](O)[C@@]2(N1)[C@@H]4O)[C@]3(O)CO", "note": "[TTX, tetrodotoxin]", "values": [
      {"measurement": "differences in mitochondrial dynamics between forms of apoE in the presence of TTX", "setting": "[1]", "result": "No significant differences"},
      {"measurement": "mitochondrial dynamics", "setting": "[1]", "result": "increased"},
      {"measurement": "mitochondrial index", "setting": "[1]", "result": "without affecting; also recorded: not affected"},
      {"measurement": "differences in dendritic spine density between forms of apoE in the presence of TTX", "setting": "[2]", "result": "No significant differences"}
    ]},
    {"molecule": "NC(CCCP(=O)(O)O)C(=O)O", "note": "(stereo not drawn) [AP5, 2-amino-5-phosphonovalerate]", "values": [
      {"measurement": "mitochondrial motility increased", "setting": "[1]; 24 h", "result": "about 30%"}
    ]},
    {"molecule": "apoE4: full-length human apolipoprotein E4 (SEQ ID NO:1); expressed from cDNA or added as recombinant protein", "values": [
      {"measurement": "number of mitochondria in dendritic spines", "setting": "primary cortical neurons", "result": "many fewer mitochondria"},
      {"measurement": "density of dendritic spines decreased vs controls", "setting": "[3]", "result": "19±5", "unit": "%"},
      {"measurement": "density of dendritic spines reduced compared with apoE3", "setting": "[3]", "result": "28±4", "unit": "%"},
      {"measurement": "reduction of percentage of motile mitochondria in response to neuronal activation", "setting": "[1]", "result": 30, "unit": "%"},
      {"measurement": "average length of mitochondria", "setting": "[1]; exogenous apoE 7.5 μg/ml, 24 h", "result": "significantly reduced"},
      {"measurement": "retrograde velocity", "setting": "[1]; exogenous apoE 7.5 μg/ml, 24 h", "result": "unaffected"},
      {"measurement": "spinal density reduced in response to neuronal activation, compared to controls", "setting": "[2]; apoE 7.5 μg/ml 24 h, repetitive KCl depolarization", "result": "48±11", "unit": "%"},
      {"measurement": "density of dendritic spines decreased vs controls", "setting": "[2]; apoE 7.5 μg/ml, 24 h", "result": "13±5", "unit": "%"},
      {"measurement": "density of dendritic spines reduced compared with apoE3", "setting": "[2]; apoE 7.5 μg/ml, 24 h", "result": "27±5", "unit": "%"}
    ]},
    {"molecule": "COCCOC(=O)C1=C(C)NC(C)=C(C(=O)OC(C)C)C1c1cccc([N+](=O)[O-])c1", "note": "(stereo not drawn) [nimodipine]", "values": [
      {"measurement": "mitochondrial motility increased", "setting": "[1]; 24 h", "result": "about 30%"}
    ]},
    {"molecule": "L279Q: full-length WT apoE4 with single mutation L279Q", "values": [
      {"measurement": "neurotoxicity (cell survival, MTT assay)", "setting": "Neuro-2a cells", "result": "as neurotoxic as apoE4(1-272)"}
    ]},
    {"molecule": "Q284A: full-length WT apoE4 with single mutation Q284A", "values": [
      {"measurement": "neurotoxicity (cell survival, MTT assay)", "setting": "Neuro-2a cells", "result": "as neurotoxic as apoE4(1-272)"}
    ]},
    {"molecule": "[Cl-].[K+]", "note": "[KCl]", "values": [
      {"measurement": "average moving velocity (anterograde direction)", "setting": "[1]; [5]", "result": "drastically reduced"},
      {"measurement": "mitochondrial moving velocity (distance/time moving)", "setting": "[1]; [5]", "result": "unaltered; also recorded: did not affect"},
      {"measurement": "net moving distance (anterograde direction)", "setting": "[1]; [5]", "result": "drastically reduced"},
      {"measurement": "retrograde motility", "setting": "[1]; [5]", "result": "No significant changes"},
      {"measurement": "mitochondrial index reduced", "setting": "[1]; repetitive depolarizations with KCl (4×, 90 mM)", "result": 22.5, "unit": "%"}
    ]},
    {"molecule": "apoE3: recombinant apolipoprotein E3 isoform; also stably expressed in PC12 cells", "values": [
      {"measurement": "density of dendritic spines increased vs controls", "setting": "[3]", "result": "11±4", "unit": "%"},
      {"measurement": "reduction of percentage of motile mitochondria in response to neuronal activation", "setting": "[1]", "result": "58±6", "unit": "%"},
      {"measurement": "average length of mitochondria", "setting": "[1]; exogenous apoE 7.5 μg/ml, 24 h", "result": "did not"},
      {"measurement": "mitochondrial motility / dynamics overall", "setting": "[1]; exogenous apoE 7.5 μg/ml, 24 h", "result": "not affected"},
      {"measurement": "mitochondrial motility / dynamics overall", "setting": "[1]; exogenous apoE 7.5 μg/ml, 24 h, listed as ApoE3", "result": "did not alter mitochondrial dynamics significantly"},
      {"measurement": "percentage of motile mitochondria reduced", "setting": "[4]", "result": "unaffected"},
      {"measurement": "density of dendritic spines increased vs controls", "setting": "[2]; apoE 7.5 μg/ml, 24 h", "result": "20±6", "unit": "%"}
    ]}
  ]
}
